Reference: PMC5428058, “Local delivery of novel MRTF/SRF inhibitors prevents scar tissue formation in a preclinical model of fibrosis” (Scientific Reports, 2017)

Tests used:
[1] = system: human conjunctival fibroblasts; assay: fibroblast-populated collagen contraction assay (human); type: cell-based; settings: for IC50: human conjunctival fibroblasts in collagen type I matrix, 7 days
Procedure: We screened two candidate MRTF/SRF pathway inhibitors, CCG-222740 and CCG-203971, using detached three-dimensional fibroblast-populated collagen gels[56], [57]. Human or rabbit conjunctival fibroblasts were seeded in a collagen Type I matrix (First Link UK Ltd, Birmingham, UK) at a concentration of 0.7 × 10^4 cells/ml. The fibroblast-populated collagen gel mixture was cast into the wells of MatTek dishes (MatTek Corp, MI, USA). The gels were detached from the edges of the well and 2 ml of growth medium were added to each well with 5, 25, 50, 75, or 100 μM of CCG-222740 or CCG-203971 or 0.1% DMSO control. Digital photographs were obtained daily and lattice areas were measured using Image J software (http://rsb.info.nih.gov/ij/). The gel size at day 7 was assessed as a percentage of lattice area on day 0. Each experiment was performed as triplicate gels per condition and the experiment was repeated on three separate days.

[2] = system: human conjunctival fibroblasts; assay: cell viability assay (CellTiter 96 Aqueous one solution); type: cell-based; settings: for cell viability: 24 hours
Procedure: Human conjunctival fibroblasts were plated at 6.25 × 10^3 cells/well in 96-well plates (Falcon, Fisher Scientific), and treated with 1, 3, 10, 30 or 100 μM of CCG-222740 or CCG-203971 or 0.1% DMSO control for 24 hours. 20 μl of CellTiter 96 Aqueous one solution (Promega) were then added to each well containing the samples in 100 μl of culture medium. The plate was incubated for 1 hour at 37 °C and the absorbance was measured at 490 nm on a SpectraMax Plus 384 spectrophotometer (Molecular Devices, California, USA). Each experiment was carried out in triplicates for each condition and the experiment was repeated three times.

[3] = system: SRF reporter gene; assay: SRF reporter gene assay in transfected cells; type: cell-based; settings: human and rabbit conjunctival fibroblasts (3DA.Luc), HEK293 (SRE.L luc), 24 hours
Procedure: Human or rabbit conjunctival fibroblasts were plated at 2 × 10^4 cells/well in 24-well plates (Falcon, Fisher Scientific) for transient transfection. Conjunctival fibroblasts in each well were co-transfected using 2.5 μl Lipofectamine LTX and 0.5 μl Plus reagent (Invitrogen) with 8 ng of SRF reporter plasmid 3DA.Luc, 20 ng of pTK-Renilla-Luc and 172 ng of pEF in OptiMEM (Gibco)[58]. After 2 hours of transfection, fibroblasts were allowed to recover in DMEM +10% FCS overnight.
HEK293T cells were plated at 2 × 10^4 cells/well in 96-well plates (Falcon, Fisher Scientific) and co-transfected using Lipofectamine 2000 (Invitrogen) with 4 ng of SRF reporter plasmid SRE.L. luciferase, and 2 ng of either Gα12Q231L or pcDNA3.1/Zeo(−) diluted in Opti-MEM (Gibco). After 5 hours of transfection, cells were allowed to recover in DMEM +10% FCS overnight.
The next day, the cells were serum starved in DMEM +0.3% FCS and 5, 25, 50, or 100 μM of CCG-222740 or CCG-203971 or 0.1% DMSO control for 24 hours. The cells were then lysed and luciferase levels were measured using a Luciferase Assay System (Promega), according to the manufacturer’s instructions. Each experiment was carried out in triplicates for each condition and the experiment was repeated three times.

[4] = system: ACTA2 in rabbit conjunctival fibroblasts; assay: ACTA2 gene expression by qRT-PCR (rabbit); type: cell-based; settings: 24 hours
Procedure: (§1) Human or rabbit conjunctival fibroblasts were plated at 1 × 10^5 cells/well in 6-well plates (Falcon, Fisher Scientific). The next day, the fibroblasts were treated with 5, 10, 25, or 50 μM of CCG-222740 or CCG-203971 or 0.1% DMSO control in DMEM +10% FCS for 24 hours. The fibroblasts were then lysed for RNA extraction using the Sigma RNA isolation kit (Sigma-Aldrich), according to the manufacturer’s instructions. Reverse transcription was carried out using the Transcriptor First Strand cDNA Synthesis Kit (Roche), according to the manufacturer’s instructions. qRT-PCR reactions were performed using SYBR green reagents (Life Technologies) on an HT7900 Fast Real-Time PCR system (Applied Biosystems). The human exonic primer sequences were: ACTA2, 5′-[…]-3′, 3′-[…]-5′; CTGF, 5′-CAGAGTGGAGCGCCTGTT-3′, 3′-CTGCAGGAGGCGTTGTCA-5′; GAPDH, 5′-[…]-3′, 3′-[…]-5′. The rabbit exonic primer sequences were ACTA2, 5′- […]-3′, 3′- […]-5′; GAPDH, 5′-CGAGACACGATGGTGAAGG-3′, 3′-[…]-5′. All mRNA values were normalised relative to that of GAPDH. Each experiment was carried out in triplicates for each treatment group and the experiment was repeated three times.

[5] = system: ACTA2 and CTGF in human conjunctival fibroblasts; assay: MRTF/SRF target gene expression by qRT-PCR (human); type: cell-based; settings: 24 hours, 10% FCS
Procedure: as §1

[6] = system: New Zealand white rabbits; assay: local and systemic toxicity after glaucoma filtration surgery; type: in vivo; settings: rabbit; for Ki67 positive cells in the conjunctival epithelium: day 30; for corneal or conjunctival toxicities, anterior chamber inflammation / local toxicity, conjunctival epithelium: local delivery; for systemic toxicity: local delivery to the conjunctiva
Procedure: The animals were evaluated twice weekly by a single-masked researcher. Bleb width and length were measured using calipers and intraocular pressures (IOP) were measured using a tonovet (Icare). The primary efficacy end-point was bleb survival as this is indicative of the long-term opening of the filtration pathway created during surgery. Bleb failure was defined as the appearance of a flat, scarred, and vascularised bleb associated with a deep anterior chamber. IOP survival, defined as when the intraocular pressure remains below the baseline IOP measurement, and bleb area were used as secondary end-points. Conjunctival vascularity was graded on a scale of 0 to 3 (0: avascular, 1: normal, 2: hyperaemic, 3: very hyperaemic).
For the Ki67 staining, the sections were dewaxed, rehydrated, and microwaved for 15 minutes in sodium citrate buffer (pH 6) for antigen retrieval. After incubating in 1.6% hydrogen peroxide followed by 10% normal horse serum, the sections were incubated in mouse anti-Ki67 (M7248, Dako) diluted 1 in 25 in 1% BSA/PBS for 1 hour at room temperature. The sections were then incubated in biotinylated horse anti-mouse IgG (Vector) and Avidin-Biotin complex (Vector), developed in DAB (Vector), and counterstained in haematoxylin.
All animals were carefully evaluated for any signs of ocular or systemic toxicity during the study. At day 30, 100 µl of aqueous, 1 ml of vitreous, and 1 ml of venous blood were sampled on the rabbit eyes receiving CCG-222740 or CCG-203971 or vehicle control. The venous blood samples were left to clot for 30 minutes at room temperature, spun at 4000 rpm for 15 minutes at 4 °C, and the serum was collected as the supernatant. Samples were extracted in acetonitrile and the levels of CCG-222740 and CCG-203971 were measured in the aqueous, vitreous, and serum using liquid chromatography/mass spectrometry (LC/MS) in the Metabolomics Core at Michigan State University (East Lansing, MI).

| Compound | potency in collagen contraction relative to CCG-203971 ([1]; human conjunctival fibroblasts) | IC50 [1] | cell viability ([2]; 10 μM) | cell viability ([2]; 30 μM) | cell viability ([2]; 100 μM) | cytotoxicity, comparison ([2]; human conjunctival fibroblasts) | inhibition of baseline SRF reporter activity [3] | ACTA2 gene expression, comparison [4] | expression of MRTF/SRF target genes ACTA2 and CTGF, comparison [5] | conjunctival vascularity [6] | Ki67 positive cells in the conjunctival epithelium [6] | corneal or conjunctival toxicities, anterior chamber inflammation [6] | local toxicity, conjunctival epithelium [6] | systemic toxicity [6] |
| --- | --- | --- | --- | --- | --- | --- | --- | --- | --- | --- | --- | --- | --- | --- |
| O=C(Nc1ccc(Cl)cc1)C1CN(C(=O)c2cccc(-c3ccco3)c2)CC(F)(F)C1 (stereo not drawn) [CCG-222740] | five times more potent than CCG-203971 | 5 µM | 100% | 88% | 85% | less cytotoxic than CCG-203971 | ~100% | decreased ACTA2 gene expression to a greater extent than CCG-203971 | more potent inhibitor of expression | no abnormalities in conjunctival vascularity | normal Ki67 positive cells | no signs of corneal or conjunctival toxicities or anterior chamber inflammation | did not cause any detectable local toxicity | none of them showed any signs of systemic toxicity |
| O=C(Nc1ccc(Cl)cc1)C1CCCN(C(=O)c2cccc(-c3ccco3)c2)C1 (stereo not drawn) [CCG-203971] | – | 25 µM | – | – | – | – | ~100% | – | – | no abnormalities in conjunctival vascularity | normal Ki67 positive cells | no signs of corneal or conjunctival toxicities or anterior chamber inflammation | did not cause any detectable local toxicity | none of them showed any signs of systemic toxicity |
